According to US20230331672A1, “6-METHOXY-2-PHENETHYL ISOINDOLINE-1-ONE DERIVATIVE AND COMPOSITION FOR TREATING NEUROLOGICAL DISORDERS, COMPRISING SAME” (CNG BIO CO., LTD., priority 2020, published 2023):

Tested on: nerve growth factor (NGF) in C6 glioma cells
Test: Ability to promote increase of nerve growth factor (NGF) produced in cell medium, ELISA
Format: cell-based, Rat
Conditions: 10 μM, 24 hours, FIG. 22
Procedure: Rat astrocyte-derived C6 glioma cells were dispensed in DMEM culture solution at a concentration of 1×10^5 cells/well in a 24 well plate and stabilized overnight, and then treated with the compounds of the present invention at a concentration of 10 μM, and reacted in a 37° C. incubator for 24 hours. The treated medium was collected and centrifuged, and then absorbance was measured using an enzyme linked immunoassay kit (ELISA kit).

Row | Compound | nerve growth factor produced in the cell medium
1 | COc1cc2c(c(O)c1Br)CN(CCc1ccc(F)cc1)C2=O [Formula 1, 5-bromo-2-(4-fluorophenethyl)-4-hydroxy-6-methoxyisoindolin-1-one] | significantly excellent
2 | C=Cc1c(OC)cc2c(c1OCOC)CN(CCc1ccc(OC)cc1)C2=O [Formula 13, 6-methoxy-4-(methoxymethoxy)-2-(4-methoxyphenethyl)-5-vinylisoindolin-1-one] | significantly excellent
3 | C=Cc1c(OC)cc2c(c1O)CN(CCc1ccc(C(F)(F)F)cc1)C2=O [Formula 20, 4-hydroxy-6-methoxy-2-(4-(trifluoromethyl)phenethyl)-5-vinylisoindolin-1-one] | significantly excellent
4 | COc1cc2c(c(O)c1Br)CN(CCc1ccc(C(F)(F)F)cc1)C2=O [Formula 6, 5-bromo-4-hydroxy-6-methoxy-2-(4-(trifluoromethyl)phenethyl)isoindolin-1-one] | significantly excellent

Tested on: NO production in BV2 cells (microglia)
Test: NO production in LPS-stimulated BV2 cells (Griess reaction), antineuritic activity
Format: cell-based
Conditions: 10 μM, 100 ng/ml LPS for 24 hours, nitrite by Griess reaction, FIG. 26
Procedure: BV2 cells (microglia) were dispensed in DMEM culture solution at a concentration of 6×10^4 cells/well in a 96 well plate, and then treated with the compounds of the present invention at a concentration of 10 μM, and incubated for 24 hours. After 24 hours, each sample was treated with a concentration of 10 μM, reacted for 1 hour, and then stimulated with 100 ng/ml of LPS for 24 hours. The production of nitrite, a soluble oxidation product of NO (nitric oxide), was measured in the culture medium through the Griess reaction.

Row | Compound | NO production compared to untreated control group
5 | C=Cc1c(OC)cc2c(c1OCOC)CN(CCc1ccc(OC)cc1)C2=O [Formula 13, 6-methoxy-4-(methoxymethoxy)-2-(4-methoxyphenethyl)-5-vinylisoindolin-1-one] | significantly reduced
6 | COCOc1c(Br)c(OC)cc2c1CN(CCc1ccc(OC)cc1)C2=O [Formula 12, 5-bromo-6-methoxy-4-(methoxymethoxy)-2-(4-methoxyphenethyl)isoindolin-1-one] | significantly reduced
7 | COc1ccc(CCN2Cc3c(cc(OC)c(CCO)c3O)C2=O)cc1 [Formula 15, 4-hydroxy-5-(2-hydroxyethyl)-6-methoxy-2-(4-methoxyphenethyl)isoindolin-1-one] | significantly reduced
8 | COc1cc2c(c(O)c1CCCO)CN(CCc1ccccc1)C2=O [Formula 17, 4-hydroxy-5-(3-hydroxypropyl)-6-methoxy-2-phenethyl isoindolin-1-one] | significantly reduced
9 | C=Cc1c(OC)cc2c(c1O)CN(CCc1ccc(OC)cc1)C2=O [Formula 21] | significantly reduced
10 | COc1cc2c(c3c1CCO3)CN(CCc1ccccc1)C2=O [Formula 19, 4-methoxy-7-phenethyl-7,8-dihydro-2H-furo[2,3-e]isoindole-6(3H)-1] | significantly reduced
